The source of these data is patent US9877957B2, “Tetrahydroisoquinoline derivatives useful as inhibitors of diacylglyceride O-acyltransferase 2” (Merck Sharp & Dohme Corp., priority 2014, dated 2018).

Chain of hDGAT2 (Q96PD7 whole entry): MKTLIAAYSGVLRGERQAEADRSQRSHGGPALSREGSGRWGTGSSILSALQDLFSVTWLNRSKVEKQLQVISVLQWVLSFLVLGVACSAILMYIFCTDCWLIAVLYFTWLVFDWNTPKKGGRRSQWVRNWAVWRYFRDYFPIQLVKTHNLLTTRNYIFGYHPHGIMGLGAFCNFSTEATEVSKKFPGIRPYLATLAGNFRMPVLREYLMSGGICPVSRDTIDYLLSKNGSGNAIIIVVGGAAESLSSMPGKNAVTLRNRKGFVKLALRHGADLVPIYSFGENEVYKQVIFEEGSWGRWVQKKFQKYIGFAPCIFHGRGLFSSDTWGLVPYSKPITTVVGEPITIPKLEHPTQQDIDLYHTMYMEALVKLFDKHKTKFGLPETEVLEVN

The assay concerns the target hDGAT2 (Homo sapiens (Human), UniProt Q96PD7). The assay is described as follows: DGAT2 Enzymatic Activity Assay (triolein formation, LC/MS/MS). The conditions noted are these: Sf-9 membrane prep expressing hDGAT2; 25 μM diolein, 10 μM oleoyl-CoA; room temperature; read-out: IC50 values for inhibition of DGAT2. Type of assay: biochemical. The protocol: In Vitro DGAT2 ASSAYS and Determination of IC50 Values for DGAT2 Inhibitors
Insect Cell Expression and Membrane Preparation
Sf-9 insect cells were maintained in Grace's insect cell culture medium with 10% heated-inactivated fetal bovine serum, 1% Pluronic F-68 and 0.14 μg/ml Kanamycine sulfate in Erlenmeyer flasks at 28° C. in a shaker incubator. After infection with untagged hDGAT2 baculovirus at multiplicity of infection (MOI) 0.1 for 48 hours, cells were harvested. Cell pellets were suspended in buffer containing 10 mM Tris-HCl (pH 7.5), 1 mM EDTA (pH 8.0), 250 mM sucrose and Complete Protease Inhibitor Cocktail (Roche Diagnostics Corp., Indianapolis, Ill.), and sonicated on ice. Membrane fractions were isolated by ultracentrifugation (100,000× g pellet), resuspended in the same buffer, and frozen (−80° C.) for later use. The protein concentration was determined with the BCA Protein Assay kit (Pierce Biotechnology Inc., Rockford, Ill.). Expression of protein levels was analyzed by immunoblotting with goat polyclonal DGAT2 antibody C-15 and donkey anti-goat IgG HRP (Santa Cruz Biotechnology, Inc., Santa Cruz, Calif.) followed by detection with ECL reagent (GE Healthcare, Piscataway, N.J.).
LC/MS/MS analyses were performed using Thermal Fisher's LX4-TSQ Vantage system. This system consists of an Agilent binary high-performance liquid chromatography (HPLC) pumps and a TSQ Vantage triple quadrupole MS/MS instrument. For each sample, 2 μL samples from the top organic layer of in-plate liquid-liquid extraction were injected onto a Thermo Betabasic C4 column (2.1 mm×20 mm, 5 μm particle size). The samples were then eluted using the following conditions; mobile phase: methanol/water with 0.1% ammonium format=92/8 (v/v), flow rate: 1 mL/min, temperature: 25° C. Data was acquired in positive mode using a heated electrospray ionization (HESI) interface. The operational parameters for the TSQ Vantage MS/MS instrument were a spray voltage of 3000 V, capillary temperature of 280° C., vaporizer temperature 400° C., shealth gas 60 arbitrary unit, Aux gas 40 arbitrary units, S-lens 113 and collision gas 0.16 Pascals. […] (SRM) chromatograms of triolein (Q1: 902.9>Q3:602.3) and internal standard (Q1: 902.9>Q3:602.3) were collected for 40 sec. The peak area was integrated by Xcalibur Quan software. The ratio between the triolein generated in the reaction and spiked in internal standard were used to generate percentage inhibition and IC50 values. Compound percentage inhibition was calculated by the following formula: Inhibition %=1−[(compound response−low control)/(high control−low control)]×100%. Potent compounds were titrated and IC50 were calculated by 4 parameter sigmoidal curve fitting formula.
DGAT2 Enzymatic Activity Assay
DGAT2 activity was determined by measuring the amount of enzymatic product triolein (1,2,3-Tri(cis-9-octadecenoyl)glycerol) using the membrane prep mentioned above. The assay was carried out in deep well 384 plates in a final volume of 40 μL at room temperature. The assay mixture contained the following: assay buffer (100 mM Tris·Cl, pH 7.0, 20 mM MgCl2, 5% ethanol), 25 μM of diolein, 10 μM of oleoyl-CoA and 10 ng/μL of DGAT2 membrane.
Regarding `CC(C)(C)NC(=O)N1CCc2c(-c3cccc(C(F)(F)F)c3)ccc(C(=O)NCCN3CCCc4ccccc43)c2C1` [Example 43, N^2-(tert-butyl)-N^8-(2-(3,4-dihydroquinolin-1(2H)-yl)ethyl)-5-(3-(trifluoromethyl)phenyl)-3,4-dihydroisoquinoline-2,8(1H)-dicarboxamide], the concentration for half-maximal inhibition (IC50) came out at 1140 nM.
To `CC(CNC(=O)c1ccc(-c2cccc(C(F)(F)F)c2)c2c1CN(C(=O)NC(C)(C)C)CC2)n1cccn1` (stereo not drawn) [Example 44, N^8-(2-(1H-pyrazol-1-yl)propyl)-N^2-(tert-butyl)-5-(3-(trifluoromethyl)phenyl)-3,4-dihydroisoquinoline-2,8(1H)-dicarboxamide] belongs 1200 nM.
The result for `CC(CNC(=O)c1ccc(-c2cccc(C(F)(F)F)c2)c2c1CN(C(=O)NC(C)(C)C)CC2)c1ncco1` (stereo not drawn) [Example 45, N^2-(tert-butyl)-N^8-(2-(oxazol-2-yl)propyl)-5-(3-(trifluoromethyl)phenyl)-3,4-dihydroisoquinoline-2,8(1H)-dicarboxamide] reads 1280 nM; that for `CC(CNC(=O)c1ccc(-c2cccc(C(F)(F)F)c2)c2c1CN(C(=O)NC(C)(C)C)CC2)c1ccno1` (stereo not drawn) [Example 46, N^2-(tert-butyl)-N^8-(2-(isoxazol-5-yl)propyl)-5-(3-(trifluoromethyl)phenyl)-3,4-dihydroisoquinoline-2,8(1H)-dicarboxamide], 1300 nM; that for `Cc1nnc(CCNC(=O)c2ccc(-c3cccc(C(F)(F)F)c3)c3c2CN(C(=O)NC(C)(C)C)CC3)[nH]1` [Example 47, N^2-(tert-butyl)-N^8-(2-(5-methyl-4H-1,2,4-triazol-3-yl)ethyl)-5-(3-(trifluoromethyl)phenyl)-3,4-dihydroisoquinoline-2,8(1H)-dicarboxamide], 1200 nM.
On to `CC(C)(C)NC(=O)N1CCc2c(-c3cccc(C(F)(F)F)c3)ccc(C(=O)NCCn3cncn3)c2C1` [Example 48, N^8-(2-(1H-1,2,4-triazol-1-yl)ethyl)-N^2-(tert-butyl)-5-(3-(trifluoromethyl)phenyl)-3,4-dihydroisoquinoline-2,8(1H)-dicarboxamide], for which the concentration for half-maximal inhibition (IC50) is 1410 nM.
The result for `CC(C)(C)NC(=O)N1CCc2c(-c3cccc(C(F)(F)F)c3)ccc(C(=O)NCCc3cn4cccnc4n3)c2C1` [Example 49, N^2-(tert-butyl)-N^8-(2-(imidazo[1,2-a]pyrimidin-2-yl)ethyl)-5-(3-(trifluoromethyl)phenyl)-3,4-dihydroisoquinoline-2,8(1H)-dicarboxamide] reads 1570 nM; that for `Cc1noc(C)c1CCNC(=O)c1ccc(-c2cccc(C(F)(F)F)c2)c2c1CN(C(=O)NC(C)(C)C)CC2` [Example 50, N^2-(tert-butyl)-N^8-(2-(3,5-dimethylisoxazol-4-yl)ethyl)-5-(3-(trifluoromethyl)phenyl)-3,4-dihydroisoquinoline-2,8(1H)-dicarboxamide], 1970 nM; that for `CC(C)(C)NC(=O)N1CCc2c(-c3cccc(C(F)(F)F)c3)ccc(C(=O)NCc3nnc4n3CCC4)c2C1` [Example 51, N^2-(tert-butyl)-N^8-((6,7-dihydro-5H-pyrrolo[2,1-c][1,2,4]triazol-3-yl)methyl)-5-(3-(trifluoromethyl)phenyl)-3,4-dihydroisoquinoline-2,8(1H)-dicarboxamide], 2030 nM.
The result for `CC(C)(C)NC(=O)N1CCc2c(-c3cccc(C(F)(F)F)c3)ccc(C(=O)NCCc3ccc(C(F)(F)F)cc3)c2C1` [Example 52, N^2-(tert-butyl)-N^8-(4-(trifluoromethyl)phenethyl)-5-(3-(trifluoromethyl)phenyl)-3,4-dihydroisoquinoline-2,8(1H)-dicarboxamide] reads 2420 nM; that for `CC(C)(C)NC(=O)N1CCc2c(-c3cccc(C(F)(F)F)c3)ccc(C(=O)Nc3nonc3-c3nc4ccccc4[nH]3)c2C1` [Example 53, N^8-(4-(1H-benzo[d]imidazol-2-yl)-1,2,5-oxadiazol-3-yl)-N^2-(tert-butyl)-5-(3-(trifluoromethyl)phenyl)-3,4-dihydroisoquinoline-2,8(1H)-dicarboxamide], 3340 nM.
Take `CC(C)(C)NC(=O)N1CCc2c(-c3cccc(C(F)(F)F)c3)ccc(C(=O)NCCc3cnc4ccccn34)c2C1` [Example 54, N^2-(tert-butyl)-N^8-(2-(imidazo[1,2-a]pyridin-3-yl)ethyl)-5-(3-(trifluoromethyl)phenyl)-3,4-dihydroisoquinoline-2,8(1H)-dicarboxamide]: the IC50 came out at 3720 nM.
The result for `CC(C)(C)NC(=O)N1CCc2c(-c3cccc(OC(F)(F)F)c3)ccc(C(=O)NCc3cn4cccnc4n3)c2C1` [Example 55, N^2-(tert-butyl)-N^8-(imidazo[1,2-a]pyrimidin-2-ylmethyl)-5-(3-(trifluoromethoxy)phenyl)-3,4-dihydroisoquinoline-2,8(1H)-dicarboxamide] reads 2150 nM; that for `Cc1nccn1CCNC(=O)c1ccc(-c2cccc(C(F)(F)F)c2)c2c1CN(C(=O)NC(C)(C)C)CC2` [Example 56, N^2-(tert-butyl)-N^8-(2-(2-methyl-1H-imidazol-1-yl)ethyl)-5-(3-(trifluoromethyl)phenyl)-3,4-dihydroisoquinoline-2,8(1H)-dicarboxamide], 7950 nM.
As to `CC(C)(C)NC(=O)N1CCc2c(-c3cccc(OC(F)(F)F)c3)ccc(C(=O)N3CCCCC3c3ccccc3)c2C1` (stereo not drawn) [Example 57, N-(tert-butyl)-8-(2-phenylpiperidine-1-carbonyl)-5-(3-(trifluoromethoxy)phenyl)-3,4-dihydroisoquinoline-2(1H)-carboxamide], the IC50 worked out at 8760 nM.
The result for `CC(C)(C)NC(=O)N1CCc2c(-c3cccc(C(F)(F)F)c3)ccc(C(=O)NCCc3nc4ccc(Cl)cc4[nH]3)c2C1` [Example 58, N^2-(tert-butyl)-N^8-(2-(6-chloro-1H-benzo[d]imidazol-2-yl)ethyl)-5-(3-(trifluoromethyl)phenyl)-3,4-dihydroisoquinoline-2,8(1H)-dicarboxamide] reads 16.7 nM; that for `COc1ccc2nc(CCNC(=O)c3ccc(-c4cccc(C(F)(F)F)c4)c4c3CN(C(=O)NCC(F)(F)F)CC4)[nH]c2c1` [Example 59, N^8-(2-(6-methoxy-1H-benzo[d]imidazol-2-yl)ethyl)-N^2-(2,2,2-trifluoroethyl)-5-(3-(trifluoromethyl)phenyl)-3,4-dihydroisoquinoline-2,8(1H)-dicarboxamide], 82.9 nM.
On to `Cc1nnc(CCNC(=O)c2ccc(-c3cccc(C(F)(F)F)c3)c3c2CN(C(=O)NC(C)(C)C)CC3)[nH]1` [Example 60, N^2-(tert-butyl)-N^8-(2-(5-methyl-4H-1,2,4-triazol-3-yl)ethyl)-5-(3-(trifluoromethyl)phenyl)-3,4-dihydroisoquinoline-2,8(1H)-dicarboxamide], for which the IC50 came to 1350 nM.
Turning to `CC(NC(=O)c1ccc(-c2cccc(C(F)(F)F)c2)c2c1CN(C(=O)NC(C)(C)C)CC2)c1nnc[nH]1` (stereo not drawn) [Example 62, N^8-(1-(4H-1,2,4-triazol-3-yl)ethyl)-N^2-(tert-butyl)-5-(3-(trifluoromethyl)phenyl)-3,4-dihydroisoquinoline-2,8(1H)-dicarboxamide], the IC50 was 3840 nM.
In the case of `CC(C)(C)NC(=O)N1CCc2c(-c3cccc(C(F)(F)F)c3)ccc(C(=O)NC3(c4ccccn4)CC3)c2C1` [Example 63, N^2-(tert-butyl)-N^8-(1-(pyridin-2-yl)cyclopropyl)-5-(3-(trifluoromethyl)phenyl)-3,4-dihydroisoquinoline-2,8(1H)-dicarboxamide], the IC50 stood at 2060 nM.
For `CC(NC(=O)c1ccc(-c2cccc(C(F)(F)F)c2)c2c1CN(C(=O)NC(C)(C)C)CC2)c1cn2ncsc2n1` (stereo not drawn) [Example 64, N^2-(tert-butyl)-N^8-(1-(imidazo[2,1-b][1,3,4]thiadiazol-6-yl)ethyl)-5-(3-(trifluoromethyl)phenyl)-3,4-dihydroisoquinoline-2,8(1H)-dicarboxamide], the IC50 is 390 nM.
